From PubChem BioAssay (NCI)
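Tested at 5 concentrations; 48 h exposure; 96-well plates; endpoints linearly interpolated, else capped at highest concentration. GI50 marks 50% less growth. At the TGI there is no net growth.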

Tests used:
Assay in all cases: NCI-60 cell line screen, 48 h
[1] = system: COLO 205 colon
[2] = system: UO-31 renal
[3] = system: SNB-75 CNS
[4] = system: HL-60(TB) leukemia
[5] = system: SK-MEL-5 melanoma
[6] = system: OVCAR-5 ovarian
[7] = system: TK-10 renal
[8] = system: PC-3 prostate
[9] = system: SR leukemia
[10] = system: HT29 colon
[11] = system: NCI-H522 lung
[12] = system: OVCAR-3 ovarian
[13] = system: SW-620 colon
[14] = system: T-47D breast
[15] = system: CCRF-CEM leukemia
[16] = system: HS 578T breast
[17] = system: OVCAR-4 ovarian
[18] = system: A549 NSCLC
[19] = system: 786-0 renal
[20] = system: NCI-H23 lung
[21] = system: SNB-19 CNS
[22] = system: RPMI-8226 leukemia
[23] = system: K-562 leukemia
[24] = system: SK-MEL-28 melanoma
[25] = system: NCI-H460 lung
[26] = system: MDA-MB-435
[27] = system: HCT-116 colon
[28] = system: SN12C renal
[29] = system: EKVX NSCLC
[30] = system: KM12 colon
[31] = system: SK-MEL-2 melanoma
[32] = system: SF-268 CNS
[33] = system: HCC-2998 colon
[34] = system: HOP-92 NSCLC
[35] = system: HOP-62 NSCLC
[36] = system: BT-549 breast
[37] = system: M14 melanoma
[38] = system: NCI/ADR-RES ovarian
[39] = system: A498 renal
[40] = system: SK-OV-3 ovarian
[41] = system: MCF7 breast
[42] = system: UACC-62 melanoma
[43] = system: LOX IMVI melanoma
[44] = system: OVCAR-8 ovarian
[45] = system: ACHN renal
[46] = system: MOLT-4 leukemia
[47] = system: CAKI-1 renal
[48] = system: HCT-15 colon
[49] = system: IGROV1 ovarian
[50] = system: DU-145 prostate
[51] = system: SF-539 CNS
[52] = system: SF-295 CNS
[53] = system: NCI-H226 lung
[54] = system: MALME-3M melanoma
[55] = system: MDA-MB-231 breast
[56] = system: MDA-MB-468 breast
[57] = system: RXF 393 renal
[58] = system: U251 CNS

O=C(Nc1cccc(-n2cnc3cc(-c4ccc(O)cc4)ccc32)c1)C1CC1
GI50 [1]: 0.489 µM
TGI [1]: 18.6 µM
GI50 [2]: 0.599 µM
TGI [2]: 19.3 µM
GI50 [3]: 0.246 µM
TGI [3]: 3.42 µM
GI50 [4]: 0.237 µM
TGI [4]: 0.645 µM
GI50 [5]: 0.35 µM
TGI [5]: 14.8 µM
GI50 [6]: 1.81 µM
TGI [6]: 69.5 µM
GI50 [7]: 11.3 µM
TGI [7]: 63.4 µM
GI50 [8]: 0.546 µM
TGI [8]: 53.2 µM
GI50 [9]: 0.175 µM
TGI [9]: 59.6 µM
GI50 [10]: 0.34 µM
TGI [10]: > 40.8 µM
GI50 [11]: 0.225 µM
TGI [11]: 1.14 µM
GI50 [12]: 0.32 µM
TGI [12]: 3.76 µM
GI50 [13]: 0.421 µM
TGI [13]: > 91.5 µM
GI50 [14]: 0.521 µM
TGI [14]: 19.4 µM
GI50 [15]: 0.389 µM
TGI [15]: 10.3 µM
GI50 [16]: 0.388 µM
TGI [16]: > 45.4 µM
GI50 [17]: 5.94 µM
TGI [17]: 73.9 µM
GI50 [18]: 0.895 µM
TGI [18]: > 100 µM
GI50 [19]: 0.683 µM
TGI [19]: 45.6 µM
GI50 [20]: 1.12 µM
TGI [20]: 19.8 µM
GI50 [21]: 0.811 µM
TGI [21]: 72.9 µM
GI50 [22]: 0.615 µM
TGI [22]: 13.6 µM
GI50 [23]: 0.284 µM
TGI [23]: > 36.6 µM
GI50 [24]: 12.6 µM
TGI [24]: 48.5 µM
GI50 [25]: 0.469 µM
TGI [25]: > 43.7 µM
GI50 [26]: 0.108 µM
TGI [26]: 0.441 µM
GI50 [27]: 0.512 µM
TGI [27]: 17.7 µM
GI50 [28]: 0.55 µM
TGI [28]: 35.6 µM
GI50 [29]: 0.782 µM
TGI [29]: 36.1 µM
GI50 [30]: 0.351 µM
TGI [30]: 13.9 µM
GI50 [31]: 0.417 µM
TGI [31]: 23.6 µM
GI50 [32]: 0.935 µM
TGI [32]: 71 µM
GI50 [33]: 1.18 µM
TGI [33]: 24.4 µM
GI50 [34]: 14.6 µM
TGI [34]: 52.1 µM
GI50 [35]: 0.625 µM
TGI [35]: > 69.2 µM
GI50 [36]: 0.396 µM
TGI [36]: 11.8 µM
GI50 [37]: 0.344 µM
TGI [37]: 28.3 µM
GI50 [38]: 0.539 µM
TGI [38]: 5.88 µM
GI50 [39]: 19.5 µM
TGI [39]: 84.9 µM
GI50 [40]: 0.82 µM
TGI [40]: 33.7 µM
GI50 [41]: 0.358 µM
TGI [41]: 20.2 µM
GI50 [42]: 0.354 µM
TGI [42]: 19.3 µM
GI50 [43]: 0.478 µM
TGI [43]: 22.1 µM
GI50 [44]: 0.823 µM
TGI [44]: > 58.8 µM
GI50 [45]: 0.593 µM
TGI [45]: 35.2 µM
GI50 [46]: 0.435 µM
TGI [46]: 6.19 µM
GI50 [47]: 0.503 µM
TGI [47]: 66.5 µM
GI50 [48]: 0.308 µM
TGI [48]: 15.7 µM
GI50 [49]: 0.591 µM
TGI [49]: 26.9 µM
GI50 [50]: 1.46 µM
TGI [50]: 28.4 µM
GI50 [51]: 0.332 µM
TGI [51]: 2.03 µM
GI50 [52]: 0.372 µM
TGI [52]: 7.67 µM
GI50 [53]: 2.88 µM
TGI [53]: 48.1 µM
GI50 [54]: 0.555 µM
TGI [54]: 28.2 µM
GI50 [55]: 0.7 µM
TGI [55]: 42.9 µM
GI50 [56]: 0.313 µM
TGI [56]: 8.82 µM
GI50 [57]: 0.411 µM
TGI [57]: 6.6 µM
GI50 [58]: 0.514 µM
TGI [58]: > 100 µM
